Reference: ChEMBL document CHEMBL1201862, “PubChem BioAssay data set” (2004)
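1) Cells in 96-well plates. 2) Compound, 48 h, 5 concentrations. 3) Linear interpolation between surrounding doses. 4) Unreached endpoint = highest concentration. GI50: concentration for 50% inhibition of growth.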 Active and inactive are the calls of the source. Rule as the data show it: active = GI50 up to about 1.1 µM and inactive = higher.

Tests used:
Assay in all cases: NCI-60 cell line screen, 48 h
CAKI-1 = test system: CAKI-1
COLO 205 = test system: COLO 205
DMS-273 = test system: DMS-273
EKVX = test system: EKVX
HCT-15 = test system: HCT-15
HOP-62 = test system: HOP-62
LOX IMVI = test system: LOX IMVI
MOLT-4 = test system: MOLT-4
Malme-3M = test system: Malme-3M
NCI-H522 = test system: NCI-H522
OVCAR-3 = test system: OVCAR-3
OVCAR-4 = test system: OVCAR-4
OVCAR-5 = test system: OVCAR-5
OVCAR-8 = test system: OVCAR-8
SNB-75 = test system: SNB-75
SW-620 = test system: SW-620
UACC-62 = test system: UACC-62
ACHN = test system: ACHN
SK-MEL-28 = test system: SK-MEL-28
SK-MEL-2 = test system: SK-MEL-2

| SMILES | GI50 (CAKI-1) | GI50 (COLO 205) | GI50 (DMS-273) | GI50 (EKVX) | GI50 (HCT-15) | GI50 (HOP-62) | GI50 (LOX IMVI) | GI50 (MOLT-4) | GI50 (Malme-3M) | GI50 (NCI-H522) | GI50 (OVCAR-3) | GI50 (OVCAR-4) | GI50 (OVCAR-5) | GI50 (OVCAR-8) | GI50 (SNB-75) | GI50 (SW-620) | GI50 (UACC-62) | GI50 (ACHN) | GI50 (SK-MEL-28) | GI50 (SK-MEL-2) |
| --- | --- | --- | --- | --- | --- | --- | --- | --- | --- | --- | --- | --- | --- | --- | --- | --- | --- | --- | --- | --- |
| N#CC(C#N)=C1NC(=O)CC(=O)N1 | > 100 µM (inactive) | > 100 µM (inactive) | > 100 µM (inactive) | > 100 µM (inactive) | > 100 µM | > 100 µM (inactive) | > 100 µM (inactive) | > 100 µM (inactive) | > 100 µM (inactive) | > 100 µM (inactive) | > 100 µM (inactive) | > 100 µM (inactive) | > 100 µM (inactive) | > 100 µM (inactive) | > 100 µM (inactive) | > 100 µM (inactive) | > 100 µM (inactive) | – | – | – |
| C=C1CC(CCCl)(c2ccccc2)OC1=O (configuration not stated) | – | 29 µM (inactive) | 34.7 µM (inactive) | > 44 µM (inactive) | 19.7 µM | > 100 µM (inactive) | 30.5 µM (inactive) | 21.1 µM (inactive) | 23.6 µM (inactive) | 18.5 µM (inactive) | 26.1 µM (inactive) | > 100 µM (inactive) | > 100 µM (inactive) | 41.1 µM (inactive) | 22.4 µM (inactive) | 20.2 µM (inactive) | 48.4 µM (inactive) | 32.5 µM (inactive) | 16.2 µM (inactive) | > 57.5 µM (inactive) |
| NNC(=O)N/N=C1\CNC(=O)C(=O)C1c1nc2ccccc2s1 (configuration not stated) | > 100 µM (inactive) | > 100 µM (inactive) | > 100 µM (inactive) | > 100 µM (inactive) | > 100 µM | > 100 µM (inactive) | > 100 µM (inactive) | – | > 100 µM (inactive) | > 100 µM (inactive) | > 100 µM (inactive) | > 100 µM (inactive) | > 100 µM (inactive) | > 100 µM (inactive) | > 100 µM (inactive) | > 100 µM (inactive) | > 100 µM (inactive) | > 100 µM (inactive) | > 100 µM (inactive) | > 100 µM (inactive) |
| C[C@@H](CO)OCOCc1ccccc1 | > 100 µM (inactive) | > 100 µM (inactive) | > 100 µM (inactive) | – | > 100 µM | > 100 µM (inactive) | > 100 µM (inactive) | > 100 µM (inactive) | > 100 µM (inactive) | > 100 µM (inactive) | > 100 µM (inactive) | > 100 µM (inactive) | – | – | > 100 µM (inactive) | > 100 µM (inactive) | > 100 µM (inactive) | – | > 100 µM (inactive) | > 100 µM (inactive) |
| O=C(Nc1cccc(O)c1)C(=O)C(C(=O)c1ccc(Cl)c(Cl)c1)C1OC(=O)c2ccccc21 (configuration not stated) | 27.2 µM (inactive) | 15.9 µM (inactive) | 10.1 µM (inactive) | 18.5 µM (inactive) | 15.5 µM | – | 17.3 µM (inactive) | 5.01 µM (inactive) | 14.4 µM (inactive) | 9.82 µM (inactive) | – | 13.3 µM (inactive) | 22 µM (inactive) | 10.7 µM (inactive) | 17.8 µM (inactive) | 14.4 µM (inactive) | 17.5 µM (inactive) | 14.6 µM (inactive) | 21.6 µM (inactive) | 17.5 µM (inactive) |
| Cc1ccc(S(=O)(=O)OC(C=O)C(O)C(O)COC(c2ccccc2)(c2ccccc2)c2ccccc2)cc1 (configuration not stated) | 19.8 µM (inactive) | – | 21.9 µM (inactive) | 13.9 µM (inactive) | 14.1 µM | 16.9 µM (inactive) | 19.1 µM (inactive) | 6.08 µM (inactive) | 19 µM (inactive) | 13.1 µM (inactive) | 14.9 µM (inactive) | 18.2 µM (inactive) | 20.1 µM (inactive) | 13.6 µM (inactive) | 14.9 µM (inactive) | 16.4 µM (inactive) | 15.2 µM (inactive) | 15.3 µM (inactive) | 20.6 µM (inactive) | 16.2 µM (inactive) |
| C[Si]12OCCCN(CCO1)CCO2 | > 100 µM (inactive) | > 100 µM (inactive) | > 100 µM (inactive) | > 100 µM (inactive) | – | – | – | > 100 µM (inactive) | > 100 µM (inactive) | > 100 µM (inactive) | > 100 µM (inactive) | – | > 100 µM (inactive) | > 100 µM (inactive) | > 100 µM (inactive) | > 100 µM (inactive) | > 100 µM (inactive) | > 100 µM (inactive) | > 100 µM (inactive) | > 100 µM (inactive) |
| C=C1C(=O)OC2C(C)C3C=CC(=O)[C@@]3(C)C(OC(=O)/C(C)=C/C)C1[C@@H]2OC(C)=O (some centres not stated) | 0.553 µM (active) | 0.333 µM (active) | 0.541 µM (active) | 0.551 µM (active) | 0.247 µM | 1.25 µM (inactive) | 0.243 µM (active) | 0.334 µM (active) | 0.221 µM (active) | 0.131 µM (active) | 0.26 µM (active) | 0.822 µM (active) | 1.88 µM (inactive) | 0.24 µM (active) | 1.1 µM (active) | 0.257 µM (active) | 0.344 µM (active) | 0.589 µM (active) | 0.593 µM (active) | 0.278 µM (active) |
| C=CCCCC(C#N)(c1ccccc1)N1CCCC1 (configuration not stated) | > 100 µM (inactive) | > 100 µM (inactive) | > 100 µM (inactive) | > 100 µM (inactive) | > 100 µM | > 100 µM (inactive) | > 100 µM (inactive) | > 100 µM (inactive) | > 100 µM (inactive) | > 100 µM (inactive) | > 100 µM (inactive) | > 100 µM (inactive) | > 100 µM (inactive) | > 100 µM (inactive) | > 100 µM (inactive) | > 100 µM (inactive) | > 100 µM (inactive) | > 100 µM (inactive) | > 100 µM (inactive) | > 100 µM (inactive) |
| Cc1c(C(=O)C/C(=N/NC(=O)C[n+]2ccccc2)C(=O)Nc2ccccc2)[n+]([O-])c2ccccc2[n+]1[O-] | > 100 µM (inactive) | > 100 µM (inactive) | > 100 µM (inactive) | > 100 µM (inactive) | > 100 µM | > 100 µM (inactive) | > 100 µM (inactive) | > 100 µM (inactive) | > 100 µM (inactive) | > 100 µM (inactive) | > 100 µM (inactive) | > 100 µM (inactive) | > 100 µM (inactive) | > 100 µM (inactive) | > 100 µM (inactive) | > 100 µM (inactive) | > 100 µM (inactive) | > 100 µM (inactive) | > 100 µM (inactive) | > 100 µM (inactive) |
| Cc1cccc(C2=C/C(=C(\SS/C(C(=O)c3ccc(OCC(=O)O)c(Cl)c3Cl)=C3\C=C(c4cccc(C)c4)SS3)C(=O)c3ccc(OCC(=O)O)c(Cl)c3Cl)SS2)c1 | 23.1 µM (inactive) | 7.94 µM (inactive) | 31.3 µM (inactive) | 56.5 µM (inactive) | 12 µM | 47.1 µM (inactive) | 4.69 µM (inactive) | 13.6 µM (inactive) | 25.5 µM (inactive) | 2.12 µM (inactive) | 14.2 µM (inactive) | 17.2 µM (inactive) | 30.4 µM (inactive) | 11.7 µM (inactive) | 18.7 µM (inactive) | 18.1 µM (inactive) | 13.8 µM (inactive) | 12.4 µM (inactive) | 18.6 µM (inactive) | 19.1 µM (inactive) |
| CCC(CO)COC(=O)/C=C/C(=O)OCC(CC)CO (configuration not stated) | > 100 µM (inactive) | > 100 µM (inactive) | > 100 µM (inactive) | > 55.5 µM (inactive) | > 73.3 µM | > 100 µM (inactive) | > 100 µM (inactive) | 45.1 µM (inactive) | > 61 µM (inactive) | > 61.5 µM (inactive) | > 62.5 µM (inactive) | > 100 µM (inactive) | > 100 µM (inactive) | > 76.2 µM (inactive) | 73.5 µM (inactive) | > 89.1 µM (inactive) | > 72.4 µM (inactive) | > 100 µM (inactive) | > 100 µM (inactive) | > 100 µM (inactive) |
| Cc1cccc(C)c1NC(=O)CCCC(=O)C(C#N)c1ccc(Cl)cc1 (configuration not stated) | > 100 µM (inactive) | > 100 µM (inactive) | > 100 µM (inactive) | > 100 µM (inactive) | > 100 µM | > 100 µM (inactive) | > 100 µM (inactive) | > 100 µM (inactive) | > 100 µM (inactive) | > 100 µM (inactive) | > 100 µM (inactive) | > 100 µM (inactive) | > 100 µM (inactive) | > 100 µM (inactive) | 35.6 µM (inactive) | > 100 µM (inactive) | > 100 µM (inactive) | > 100 µM (inactive) | > 100 µM (inactive) | > 100 µM (inactive) |
| CCOC(=O)/C(=C/c1ccccc1Br)P(=O)(OCC)OCC | 2.09 µM (inactive) | – | 1.26 µM (inactive) | 2.58 µM (inactive) | 1.78 µM | 3.72 µM (inactive) | 1.39 µM (inactive) | 2.28 µM (inactive) | 1.84 µM (inactive) | 0.927 µM (active) | 2.81 µM (inactive) | 1.58 µM (inactive) | 2.53 µM (inactive) | 1.91 µM (inactive) | 1.48 µM (inactive) | 1.28 µM (inactive) | 1.24 µM (inactive) | 2.57 µM (inactive) | 2.03 µM (inactive) | 1.84 µM (inactive) |
| COc1nc(OC)nc(Sc2ccc(Sc3ccc(Sc4nc(OC)nc(OC)n4)cc3)cc2)n1 | > 100 µM (inactive) | > 100 µM (inactive) | > 100 µM (inactive) | > 100 µM (inactive) | > 100 µM | – | > 100 µM (inactive) | > 100 µM (inactive) | > 100 µM (inactive) | > 100 µM (inactive) | > 100 µM (inactive) | > 100 µM (inactive) | > 100 µM (inactive) | > 100 µM (inactive) | > 100 µM (inactive) | > 100 µM (inactive) | > 100 µM (inactive) | > 100 µM (inactive) | > 100 µM (inactive) | > 100 µM (inactive) |
